Data reported in ChEMBL document CHEMBL1201862, “PubChem BioAssay data set” (2004).
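Five concentrations, 48 hours, 96-well plates. Here, GI50 denotes the concentration required for 50% inhibition of growth.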 Active and inactive are the calls of the source. Rule as the data show it: active = GI50 up to about 1.1 µM and inactive = higher.

Assays:
Experiment in all cases: growth of human tumour cells (NCI), 48 h
DLD-1 = tested on: DLD-1
786-0 = tested on: 786-0
M14 = tested on: M14
ACHN = tested on: ACHN
UO-31 = tested on: UO-31
SF-539 = tested on: SF-539
Malme-3M = tested on: Malme-3M
SW-620 = tested on: SW-620
SR = tested on: SR
HCC 2998 = tested on: HCC 2998
NCI-H522 = tested on: NCI-H522
SNB-19 = tested on: SNB-19
A498 = tested on: A498
CCRF-CEM = tested on: CCRF-CEM
NCI-H23 = tested on: NCI-H23
UACC-62 = tested on: UACC-62
OVCAR-4 = tested on: OVCAR-4
IGROV-1 = tested on: IGROV-1
CAKI-1 = tested on: CAKI-1
OVCAR-3 = tested on: OVCAR-3
SK-OV-3 = tested on: SK-OV-3
UACC-257 = tested on: UACC-257
DMS-273 = tested on: DMS-273
A549 = tested on: A549
HCT-15 = tested on: HCT-15
XF498 = tested on: XF498
OVCAR-8 = tested on: OVCAR-8
SNB-75 = tested on: SNB-75
DMS-114 = tested on: DMS-114
SK-MEL-5 = tested on: SK-MEL-5
HOP-92 = tested on: HOP-92
COLO 205 = tested on: COLO 205
RXF 393 = tested on: RXF 393
U-251 = tested on: U-251
LXFL 529 = tested on: LXFL 529
SK-MEL-28 = tested on: SK-MEL-28
OVCAR-5 = tested on: OVCAR-5
SF-268 = tested on: SF-268
HOP-18 = tested on: HOP-18
HT-29 = tested on: HT-29
K562 = tested on: K562
KM12 = tested on: KM12
RPMI-8226 = tested on: RPMI-8226
SK-MEL-2 = tested on: SK-MEL-2
MOLT-4 = tested on: MOLT-4
EKVX = tested on: EKVX
LOX IMVI = tested on: LOX IMVI
HL-60 = tested on: HL-60
HCT-116 = tested on: HCT-116
KM-20L2 = tested on: KM-20L2
SN12C = tested on: SN12C
HOP-62 = tested on: HOP-62
NCI-H226 = tested on: NCI-H226
SF-295 = tested on: SF-295
SNB-78 = tested on: SNB-78
NCI-H460 = tested on: NCI-H460
M19-MEL = tested on: M19-MEL
TK-10 = tested on: TK-10

Cc1ccc(NC(=O)C(=O)Cc2cc[n+]([O-])cc2)cc1
GI50 (DLD-1): > 100 µM (inactive) | GI50 (786-0): > 100 µM (inactive) | GI50 (M14): > 100 µM (inactive) | GI50 (ACHN): > 100 µM (inactive) | GI50 (UO-31): > 100 µM (inactive) | GI50 (SF-539): > 100 µM (inactive) | GI50 (Malme-3M): > 100 µM (inactive) | GI50 (SW-620): > 100 µM (inactive) | GI50 (SR): > 100 µM (inactive) | GI50 (HCC 2998): > 100 µM (inactive) | GI50 (NCI-H522): > 100 µM (inactive) | GI50 (SNB-19): > 100 µM (inactive) | GI50 (A498): > 100 µM (inactive) | GI50 (CCRF-CEM): > 100 µM (inactive) | GI50 (NCI-H23): > 100 µM (inactive) | GI50 (UACC-62): > 100 µM (inactive) | GI50 (OVCAR-4): > 100 µM (inactive) | GI50 (IGROV-1): > 100 µM (inactive) | GI50 (CAKI-1): > 100 µM (inactive) | GI50 (OVCAR-3): > 100 µM (inactive) | GI50 (SK-OV-3): > 100 µM (inactive) | GI50 (UACC-257): > 100 µM (inactive) | GI50 (DMS-273): > 100 µM (inactive) | GI50 (A549): > 100 µM (inactive) | GI50 (HCT-15): > 100 µM | GI50 (XF498): > 100 µM (inactive) | GI50 (OVCAR-8): > 100 µM (inactive) | GI50 (SNB-75): > 100 µM (inactive) | GI50 (DMS-114): > 100 µM (inactive) | GI50 (SK-MEL-5): > 100 µM (inactive) | GI50 (HOP-92): > 100 µM (inactive) | GI50 (COLO 205): > 100 µM (inactive) | GI50 (RXF 393): > 100 µM (inactive) | GI50 (U-251): > 100 µM (inactive) | GI50 (LXFL 529): > 100 µM (inactive) | GI50 (SK-MEL-28): > 100 µM (inactive) | GI50 (OVCAR-5): > 100 µM (inactive) | GI50 (SF-268): > 100 µM (inactive) | GI50 (HOP-18): > 100 µM (inactive) | GI50 (HT-29): > 100 µM (inactive) | GI50 (K562): > 100 µM (inactive) | GI50 (KM12): > 100 µM (inactive) | GI50 (RPMI-8226): > 100 µM (inactive) | GI50 (SK-MEL-2): > 100 µM (inactive) | GI50 (MOLT-4): > 100 µM (inactive) | GI50 (EKVX): > 100 µM (inactive) | GI50 (LOX IMVI): > 100 µM (inactive) | GI50 (HL-60): > 100 µM (inactive) | GI50 (HCT-116): > 100 µM (inactive) | GI50 (KM-20L2): > 100 µM (inactive) | GI50 (SN12C): > 100 µM (inactive) | GI50 (HOP-62): > 100 µM (inactive) | GI50 (NCI-H226): > 100 µM (inactive) | GI50 (SF-295): > 100 µM (inactive) | GI50 (SNB-78): > 100 µM (inactive) | GI50 (NCI-H460): > 100 µM (inactive) | GI50 (M19-MEL): > 100 µM (inactive) | GI50 (TK-10): > 100 µM (inactive)
